From patent US20220348590A1, “CYCLOOXYGENASE-2 INHIBITORS AND USES THEREOF” (The Board Institute, Inc., priority 2019, published 2022)
Converted amounts (≈) assume the structure as drawn. Like-named read-outs stand apart in the source and are kept apart here.

Tests used:
[1] = target: T1, ovine COX-1 (oCOX-1) (Ovis aries, UniProt P05979); assay: LCMS-based COX-1 enzymatic inhibition assay (PGE2 quantification); format: biochemical; settings: for COX1 10 minutes pge2/pge2d4 area ratio Avg. LLE / COX1 10 minutes pge2 area (counts) Avg. LLE: average LLE
T1 construct: purchased Cayman Chemicals (Ann Arbor, Mich.)
T1 sequence (P05979 25-600): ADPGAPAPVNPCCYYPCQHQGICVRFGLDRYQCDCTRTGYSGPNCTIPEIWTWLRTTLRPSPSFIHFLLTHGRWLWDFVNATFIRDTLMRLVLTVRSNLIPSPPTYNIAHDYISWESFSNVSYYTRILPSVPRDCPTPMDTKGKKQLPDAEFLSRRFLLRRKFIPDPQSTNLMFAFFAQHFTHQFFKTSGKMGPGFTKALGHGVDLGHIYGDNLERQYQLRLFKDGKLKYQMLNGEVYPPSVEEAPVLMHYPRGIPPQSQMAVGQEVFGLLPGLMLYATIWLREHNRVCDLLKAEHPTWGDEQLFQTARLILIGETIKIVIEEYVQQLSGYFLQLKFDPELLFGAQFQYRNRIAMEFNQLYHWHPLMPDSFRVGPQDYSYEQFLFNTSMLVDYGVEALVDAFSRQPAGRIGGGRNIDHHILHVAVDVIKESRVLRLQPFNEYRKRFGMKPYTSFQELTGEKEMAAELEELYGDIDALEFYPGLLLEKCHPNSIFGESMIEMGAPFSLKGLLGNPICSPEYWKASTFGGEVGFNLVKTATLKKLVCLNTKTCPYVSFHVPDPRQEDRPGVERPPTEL
How it was run: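 PGE2 formed from arachidonic acid (final 5 μM, 2 min) was measured by LC-MS-MS against DMSO controls. Enzyme (oCOX-1 0.1 μg or hCOX2 0.2 μg) with hematin/epinephrine cofactors at pH 8.0 was given 10 min at 37 °C with compound first. Twelve-point curves run three times gave IC50.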

[2] = PBS Solubility (no DMSO); format: physicochemical; settings: aqueous buffer, thermodynamic from solid, average
[3] = mouse plasma protein binding (PPB) assay; format: in vitro ADME; settings: average, read-out: Mouse Plasma Protein Binding % Bound Avg (converted)
Description: (§1) We have adapted a previously reported cyclooxygenase enzymatic assay utilizing LCMS quantification of PGE2 as the product of COX-1 and COX2 catalyzed conversion of arachidonic acid to evaluate the binding properties of newly synthesized ligands [Cao, 2011]. These optimized and miniaturized (384-well plates) LCMS-based COX-1 and COX2 enzymatic assays enabled us to quickly evaluate newly synthesized ligands for COX2 binding affinity and selectivity vs COX-1. Using a shorter ligand-enzyme incubation time in the LCMS assay (2 minutes vs 10 minutes) also permitted us to prioritize ligands with faster binding kinetics. Considering the relatively slow on-rate kinetics of known coxibs, due to their 3-step binding mechanism [Marnett, 2009], we believe that optimizing this critical parameter will be key to the successful development of a COX2 PET tracer. Using these enzymatic assays, we have evaluated>200 newly synthesized ligands against COX2 and >20 ligands against COX-1. Another critical property necessary for a good PET radiotracer is to have low non-specific binding (NSB) to increase the free fraction and maximize the signal to noise ratio. This property can be evaluated using in-vitro protein binding assays, and we have now evaluated>50 newly synthesized ligands in mouse, rat and human plasma protein binding (PPB) assays as well as >15 ligands in a mouse brain protein binding (BPB) assay.

[4] = mouse brain protein binding (BPB) assay; format: in vitro ADME
Description: as §1

[5] = tested on: MDR1; assay: MDR1-MDCKII permeability and efflux; format: in vitro ADME; settings: dog, MDCK-MDR1; for Papp A→B: read-out: MDR1-MCKII Papp A-B; for Papp B→A: read-out: MDR1-MCKII Papp B-A
[6] = Rat Microsome Stability; format: in vitro ADME; settings: rat microsomes
[7] = in-vitro protein binding: free fraction / fraction unbound, matrix and species not given; format: in vitro ADME; settings: compared to MC1; comparator not always stated
Description: as §1

[8] = Mouse Microsome Stability; format: in vitro ADME; settings: mouse microsomes
[9] = 10 minutes, readout pge2/pge2d4 area ratio
[10] = 10 minutes, readout pge2/pge2d4 area ratio, average, read-out: COX1 10 minutes pge2/pge2d4 area ratio Avg. IC50
[11] = 10 minutes, readout pge2 area (counts)
[12] = 10 minutes, readout pge2 area (counts), average, read-out: COX1 10 minutes pge2 area (counts) Avg. IC50

Structure (SMILES) | COX1 10 minutes pge2/pge2d4 area ratio Avg. LLE [1, 9] | IC50 [1, 10] [µM] | COX1 10 minutes pge2 area (counts) Avg. LLE [1, 11] | IC50 [1, 12] [µM] | solubility [2] [µM] | fraction unbound [3] | fraction unbound [4] | efflux ratio [5] | Papp A→B [5] [×10⁻⁶ cm/s] | Papp B→A [5] [×10⁻⁶ cm/s] | Rat Microsome Stability % Remaining Avg [6] [%] | improvement in free fraction (fraction unbound) [7] [fold] | IC50 [1] [µM] | Mouse Microsome Stability % Remaining Avg [8] [%]
CS(=O)(=O)c1ccc(-c2ccc(F)c(NCc3ccoc3)n2)cc1 [Compound 33] | 1.418 | 33.3 | 1.362 | 37.9 | 0.64 (≈ 0.222 µg/mL) | – | – | – | – | – | – | – | – | –
CS(=O)(=O)c1ccc(-c2cc(F)cc(NCc3ccoc3)n2)cc1 [Compound 34] | 1.4613 | 30.1 | 1.484 | 28.7 | 12 (≈ 4.16 µg/mL) | – | – | – | – | – | – | – | – | –
COc1cc(NCc2cccs2)nc(-c2ccc(S(C)(=O)=O)cc2)c1 [Compound 50] | 1.091 | 32.3 | 0.9785 | 42 | – | 0.031 | – | – | – | – | – | – | – | –
CS(=O)(=O)c1ccc(-c2cccc(OCc3ccoc3)n2)cc1 [Compound 16] | 1.139 | 39.9 | 1.072 | 46.5 | 10 (≈ 3.29 µg/mL) | 0.011 | – | – | – | – | – | – | – | –
CS(=O)(=O)c1ccc(-c2cccc(/C=C\c3ccoc3)n2)cc1 [Compound 35, 2-[(Z)-2-(furan-3-yl)ethenyl]-6-(4-methanesulfonylphenyl)pyr] | 1.089 | 22.4 | 0.724 | – | 37 (≈ 12 µg/mL) | 0.079 | 0.011 | – | – | – | – | – | – | –
CS(=O)(=O)c1ccc(-c2cncc(OCc3cccs3)n2)cc1 [Compound 19] | 2.582 | 10.4 | 2.539 | 10.9 | 5.8 (≈ 2.01 µg/mL) | 0.02 | – | – | – | – | – | – | – | –
CS(=O)(=O)c1ccc(-c2cccc(NCc3ccc(F)o3)n2)cc1 [Compound 23] | 3.122 | 0.323 | 3.085 | 0.417 | 24 (≈ 8.31 µg/mL) | – | – | – | – | – | – | – | – | –
CS(=O)(=O)c1ccc(-c2cccc(OCc3cccs3)n2)cc1 [Compound 1, 2-(4-methanesulfonylphenyl)-6-[(thiophen-2-yl)methoxy]pyridine] | 1.251 | 11.5 | 1.136 | 13.8 | 1.1 (≈ 0.38 µg/mL) | 0.004 | – | 0.9 | 33.7 | 29.9 | – | – | – | –
Cc1occc1CNc1cccc(-c2ccc(S(C)(=O)=O)cc2)n1 [Compound 21] | 1.391 | 28.7 | 1.134 | – | 18 (≈ 6.16 µg/mL) | – | – | – | – | – | – | – | – | –
CS(=O)(=O)c1ccc(-c2cccc(NCc3ccoc3)n2)cc1 [Compound 47, N-(furan-3-ylmethyl)-6-(4-(methylsulfonyl)phenyl)pyridin-2-amine] | 1.461 | 38.8 | – | – | 88 (≈ 28.9 µg/mL) | 0.07 | 0.022 | 0.9 | 50.8 | 47.2 | 8.2 | ~4 | – | –
CS(=O)(=O)c1ccc(-c2cccc(NCc3ccco3)n2)cc1 [Compound 36] | – | 36.4 | – | 29.7 | 27 (≈ 8.87 µg/mL) | 0.118 | 0.019 | 1 | 68.5 | 67.9 | 11.6 | ~4 | – | –
CS(=O)(=O)c1ccc(-c2cccc(NCc3cccs3)n2)cc1 [Compound 24] | – | 34.7 | – | 33.4 | 2.1 (≈ 0.723 µg/mL) | 0.016 | – | – | – | – | 6.9 | – | – | –
CS(=O)(=O)c1ccc(-c2nc(NCc3cccs3)cc3ccoc23)cc1 [Compound 2] | −0.046 | – | −0.02512 | 49.6 | 0.31 (≈ 0.119 µg/mL) | 0.004 | – | – | – | – | – | – | 52 | –
COc1ncc(NCc2cccs2)nc1-c1ccc(S(C)(=O)=O)cc1 [Compound 29] | 1.794 | – | 3.31 | 0.0484 | 2.8 (≈ 1.05 µg/mL) | 0.025 | – | – | – | – | 2.2 | – | 52 | 4.3
CS(=O)(=O)c1ccc(-c2ccc(F)c(NCc3ccco3)n2)cc1 [Compound 15] | 1.314 | – | 1.404 | 34.4 | 4.5 (≈ 1.56 µg/mL) | – | – | – | – | – | – | – | 52 | –
COc1ccc(NCc2cccs2)nc1-c1ccc(S(C)(=O)=O)cc1 [Compound 17] | – | – | 0.884 | – | 1.3 (≈ 0.487 µg/mL) | 0.033 | 0.012 | – | – | – | 0.2 | – | – | –
COc1ncc(NCc2ccoc2)nc1-c1ccc(S(C)(=O)=O)cc1 [Compound 44] | 2.274 | – | 2.41 | 38.1 | 28 (≈ 10.1 µg/mL) | 0.045 | – | 1.2 | 39.6 | 47.2 | 5.3 | – | 52 | –
CS(=O)(=O)c1ccc(-c2cc(F)cc(NCc3ccco3)n2)cc1 [Compound 14] | 1.4251 | 40.3 | 1.516 | 32.7 | 6.1 (≈ 2.11 µg/mL) | 0.022 | – | – | – | – | – | – | – | –
